The record followed here is ChEMBL document CHEMBL1127340, “A new approach to the design of sigma-2-selective ligands: synthesis and evaluation of N-[2-(3,4-dichlorophenyl)ethyl]-N-methyl-2-(1- pyrrolidinyl)ethylamine-related polyamines at sigma-1 and sigma-2 receptor subtypes” (J Med Chem, 1994).

The target in this test is Sigma 2 receptor. Nature of the test: Binding affinity towards sigma 2 receptor was determined in rat liver membrane using [3H]DTG as radioligand in presence of dextrallorphan. Format: cell membranes.

Molecules are shown by their SMILES.

On to `Clc1ccc(CCNCCNCCN2CCCC2)cc1Cl`, for which the inhibition constant (Ki) is 111 nM.

Turning to `CN(CCCCN1CCCC1)CCCN(C)CCc1ccc(Cl)c(Cl)c1`, the Ki worked out at 152 nM.

Regarding `NCCNCCNCCc1ccc(Cl)c(Cl)c1`, the Ki worked out at 537 nM.

Consider `CN(CCCN(C)Cc1ccc(Cl)c(Cl)c1)CCN1CCCC1`, for which the Ki turned out to be 52.6 nM.

As for `CN(CCc1ccc(Cl)c(Cl)c1)CCN(C)CCN(C)CCN(C)CCN1CCCC1`, the Ki turned out to be 162 nM.

As for `CN(CCCCN(C)CCc1ccc(Cl)c(Cl)c1)CCCCN1CCCC1`, the Ki was determined as 115 nM.

Regarding `CN(CCN(C)Cc1ccc(Cl)c(Cl)c1)CCN1CCCC1`, the inhibitory constant (Ki) stood at 12.1 nM.

Take `CN(CCc1ccc(Cl)c(Cl)c1)CCN(C)CCN(C)CCN1CCCC1`: the Ki came to 53.6 nM.

For `CN(CCCN1CCCC1)CCN(C)Cc1ccc(Cl)c(Cl)c1`, the Ki came to 183 nM.

As to `CN(CCc1ccc(Cl)c(Cl)c1)CCN1CCCC1`, the Ki came to 8.1 nM.

As to `NCCN(CCc1ccc(Cl)c(Cl)c1)CCN1CCCC1`, the inhibition constant (Ki) was determined as 135 nM.

For `CN(CCCN(C)CCc1ccc(Cl)c(Cl)c1)CCCN1CCCC1`, the inhibition constant (Ki) is 14.9 nM.

In the case of `CN(CCc1ccc(Cl)c(Cl)c1)CCN(C)CCN1CCCC1`, the Ki came out at 14.4 nM.

Take `NCCNCCc1ccc(Cl)c(Cl)c1`: the Ki was 2360 nM.

As to `Clc1ccc(CCN2CCCC2)cc1Cl`, the Ki was determined as 7700 nM.

As usually defined, the Ki is a dissociation constant, usually derived from enzyme kinetics or from competition with a known ligand.
